From US20240067639A1, “SMALL MOLECULES THAT TARGET THE RNA THAT CAUSES ALS” (EXPANSION THERAPEUTICS, INC., priority 2020, published 2024) come the findings set out here.

Read-outs that look alike come from different tables or passages of the source. Bounds are passed on as bounds.

The test system of assay [1] is RAN translation of (G4C2)66-No ATG-GFP in HEK293T cells. As to the kind of experiment: Cell-based assay of RAN translation inhibition (GFP/mCherry reporter). To be noted: Homo sapiens, HEK-293T, 24 h, read-out: RANT IC25.
The target of assay [2] is biotinylated r(G4C2)8 RNA and hnRNP H1-His6. Put plainly: TR-FRET hnRNP H binding assay. The protocol:
TR-FRET hnRNP H Binding Assay. The TR-FRET assays were performed as previously described (Disney et al., 2012) except the final concentrations of biotinylated r(G4C2)8 (SEQ ID NO: 2) RNA and hnRNP H1-His6 were 80 nM and 75 nM, respectively. The RNA was folded by heating to 95° C. for 5 min in 1× Folding Buffer followed by slowly cooling to room temperature. The buffer was adjusted to 1×TR-FRET Assay Buffer followed by addition of compound. The mixture was incubated for 15 min at room temperature and then hnRNP H1-His6 was added. After an additional 15 min incubation, streptavidin-XL665 (HTRF, Cisbio Bioassays) and anti-His6-Tb (HTRF, Cisbio Bioassays) were added to a final concentration of 40 nM and 0.44 ng/μL, respectively. After incubating for 1 h, TR-FRET was measured as previously described. The IC50s were either calculated by fitting the equation (1) in Graphpad Prism.
(In general: In TR-FRET formats the signal depends on donor and acceptor labels being close together.)

[3] abbreviates: Table D, HEK293T, 24 h treatment.
[4] abbreviates: Table F, HEK293T, 24 h treatment.

For orientation: IC25 means the point of the concentration-response curve where the effect stands at 25%. As a reminder, the Ki is the equilibrium dissociation constant of an inhibitor or competing ligand from its target. Read a high Ki as weaker binding. For the molecule `Cc1c2ccncc2cc2c3cc(OCC(=O)N4CCN(C)CC4)ccc3n(C)c12` [Example 60, 2-((5,6-dimethyl-6H-pyrido[4,3-b]carbazol-9-yl)oxy)-1-(4-methylpiperazin-1-yl)ethanone], the IC25 in assay [1] (setting [3]) is greater than 5 µM. The molecule further registered a Ki in assay [2] (Table D) of 3.8 µM.

In the case of `Cc1c2ccncc2cc2c3cc(OCCCN(C)C)ccc3n(C)c12` [Compound 6, 3-((5,6-dimethyl-6H-pyrido[4,3-b]carbazol-9-yl)oxy)-N,N-dimethylpropan-1-amine], in assay [1] (setting [3]), the 25% effect concentration (IC25) was greater than 5 µM. The molecule also had an inhibition constant Ki in assay [2] (Table D) of 32 µM.

Regarding `Cc1c2ccncc2cc2c3cc(C(N)=O)ccc3n(C)c12` [Example 69, 5,6-dimethyl-6H-pyrido[4,3-b]carbazole-9-carboxamide], the IC25 in assay [1] (setting [3]) turned out to be 1.6 µM. The molecule further gave a Ki in assay [2] (Table D) of 12 µM.

Turning to `CCn1c2ccc(OCC3=NCCN3)cc2c2cc3cnccc3cc21` [Compound 255, 9-(4,5-dihydro-1H-imidazol-2-ylmethoxy)-6-ethyl-pyrido[4,3-b]carbazole], in assay [1] (setting [4]), the IC25 came to 1.25 µM. The Ki in assay [2] (Table F) was found to be 8.8 µM.

On to `CCn1c2ccc(OCCN3CCOCC3)cc2c2cc3cnccc3c(C)c21` [Example 62, 4-[2-(6-ethyl-5-methyl-pyrido[4,3-b]carbazol-9-yl)oxyethyl]morpholine], for which the IC25 in assay [1] (setting [3]) was greater than 5 µM. Further, the Ki in assay [2] (Table D) is greater than 200 µM.

Regarding `Cc1c2ccncc2cc2c3cc(OCCN4CCOCC4)ccc3n(CCC(C)C)c12` [Compound 248, 4-(2-((6-isopentyl-5-methyl-6H-pyrido[4,3-b]carbazol-9-yl)oxy)ethyl)morpholine], the IC25 in assay [1] is greater than 5 µM. In addition, the Ki in assay [2] (Table F) was greater than 200 µM.

For the molecule `Cc1c2ccncc2cc2c3cc(OCC4=NCCN4)ccc3n(CC(C)(C)C)c12` [Compound 252, 9-((4,5-dihydro-1H-imidazol-2-yl)methoxy)-5-methyl-6-neopentyl-6H-pyrido[4,3-b]carbazole], in assay [1] (setting [4]), the IC25 was greater than 5 µM. Further, the Ki in assay [2] (Table F) was greater than 200 µM.

For the molecule `Cc1c2ccncc2cc2c3cccc(OCCN4CCOCC4)c3n(C)c12` [Example 64, 4-(2-((5,6-dimethyl-6H-pyrido[4,3-b]carbazol-7-yl)oxy)ethyl) morpholine], the IC25 in assay [1] (setting [3]) was greater than 5 µM. The molecule further returned a Ki in assay [2] (Table D) greater than 200 µM.

Turning to `Cc1c2ccncc2cc2c1oc1ccc(OCCN3CCOCC3)cc12` [Compound 231, 5-methyl-9-(2-morpholinoethoxy)benzofuro[2,3-g]isoquinoline], in assay [1], the IC25 was greater than 5 µM. In assay [2] (Table F), this molecule had a Ki greater than 200 µM.

With `Cc1c2ccncc2cc2c3cc(OCCN)ccc3n(C)c12` [Example 32, 2-((5,6-dimethyl-6H-pyrido[4,3-b]carbazol-9-yl)oxy)ethanamine], the IC25 in assay [1] (setting [3]) worked out at 1.4 µM. Moreover, the Ki in assay [2] (Table D) turned out to be 9.5 µM.

As to `Cc1c2ccncc2cc2c3cc(OCCN4CCOCC4)ccc3n(C)c12` [Compound 11, 4-(2-((5,6-dimethyl-6H-pyrido[4,3-b]carbazol-9-yl)oxy)ethyl)morpholine], the 25% effect concentration (IC25) in assay [1] (setting [3]) came out at 0.4 µM. The molecule also gave a Ki in assay [2] (Table D) of 16 µM.

Take `Cc1c2ccnc(C(=O)N[C@H](C)CN(C)C)c2cc2c3cc(OCCCN4CCN(C)CC4)ccc3n(C)c12` [Example 26, (R)—N-(1-(dimethylamino)propan-2-yl)-5,6-dimethyl-9-(3-(4-methylpiperazin-1-yl)propoxy)-6H-pyrido[4,3-b]carbazole-1-carboxamide]: the IC25 in assay [1] (setting [3]) was 0.57 µM. For the same molecule, in assay [2] (Table D), the affinity corresponds to a Ki of 5.9 µM.

In the case of `Cc1c2ccncc2cc2c3cc(OC[C@H](C)N)ccc3n(C)c12` [Compound 218, (S)-1-((5,6-dimethyl-6H-pyrido[4,3-b]carbazol-9-yl)oxy)propan-2-amine], the IC25 in assay [1] (setting [4]) was 0.84 µM. Moreover, the Ki in assay [2] (Table F) was determined as 0.8 µM.

For `Cc1c2ccncc2cc2c3cc(OCC(=O)NCCN4CCOCC4)ccc3n(C)c12` [Example 42, 2-((5,6-dimethyl-6H-pyrido[4,3-b]carbazol-9-yl)oxy)-N-(2-morpholinoethyl)acetamide], the IC25 in assay [1] (setting [3]) is greater than 5 µM. In assay [2] (Table D), this molecule yielded a Ki of 9.2 µM.

`Cc1c2ccncc2cc2c3cc(C(=O)NCCO)ccc3n(C)c12` [Compound 214, N-(2-hydroxyethyl)-5,6-dimethyl-6H-pyrido[4,3-b]carbazole-9-carboxamide]: in assay [1] (setting [4]), the IC25 turned out to be 1 µM. Besides, the inhibition constant Ki in assay [2] (Table F) came out at 3.6 µM.

For `Cc1c2ccncc2cc2c3cc(OC[C@@H]4CCCN4C)ccc3n(C)c12` [Example 37, (S)-5,6-dimethyl-9-((1-methylpyrrolidin-2-yl)methoxy)-6H-pyrido[4,3-b]carbazole], in assay [1] (setting [3]), the IC25 turned out to be 2.3 µM. Also, in assay [2] (Table D), the affinity corresponds to a Ki of 0.84 µM.

As for `Cc1c2ccncc2cc2c3cc(N4CCNCC4)ccc3n(C)c12` [Compound 244, 5,6-dimethyl-9-(piperazin-1-yl)-6H-pyrido[4,3-b]carbazole], the IC25 in assay [1] (setting [4]) came to 2.4 µM. For the same molecule, affinity in assay [2] (Table F) was put at a Ki of 0.4 µM.

Turning to `Cc1c2ccncc2cc2c3cc(OCC4=NCCN4)ccc3n(CCC(C)C)c12` [Compound 249, 9-(4,5-dihydro-1H-imidazol-2-ylmethoxy)-6-isopentyl-5-methyl-pyrido[4,3-b]carbazole], in assay [1] (setting [4]), the IC25 was greater than 5 µM. In addition, the affinity in assay [2] (Table F) corresponds to a Ki of 22 µM.

As to `Cc1c2ccncc2cc2c3cccc(OCCN(C)C)c3n(C)c12` [Compound 220, 2-((5,6-dimethyl-6H-pyrido[4,3-b]carbazol-7-yl)oxy)-N,N-dimethylethanamine], the IC25 in assay [1] was greater than 5 µM. In assay [2] (Table F), the affinity corresponds to a Ki of 2.3 µM.

With `CCN(CC)CCCOc1ccc2c(c1)c1cc3cnccc3c(C)c1n2C` [Compound 10, 3-((5,6-dimethyl-6H-pyrido[4,3-b]carbazol-9-yl)oxy)-N,N-diethylpropan-1-amine], in assay [1] (setting [3]), the IC25 stood at 3.2 µM. The molecule also showed an inhibition constant (Ki) in assay [2] (Table D) of 7.3 µM.

For `Cc1c2ccncc2cc2c3cc(OC[C@@H]4CCCN4)ccc3n(C)c12` [Example 39, (S)-5,6-dimethyl-9-(pyrrolidin-2-ylmethoxy)-6H-pyrido[4,3-b]carbazole], the IC25 in assay [1] (setting [3]) is 1.3 µM. In assay [2] (Table D), this molecule gave a Ki of 0.8 µM.

As to `Cc1c2ccncc2cc2c3ccc(OCC4=NCCN4)cc3n(C)c12` [Example 52, 8-((4,5-dihydro-1H-imidazol-2-yl)methoxy)-5,6-dimethyl-6H-pyrido[4,3-b]carbazole], the IC25 in assay [1] (setting [3]) was found to be 3.1 µM. In assay [2] (Table D), this molecule registered a Ki of 5.6 µM.

`Cc1c2ccncc2cc2c3cc(C(=O)N(C)C)ccc3n(C)c12` [Example 71, N,N,5,6-tetramethyl-6H-pyrido[4,3-b]carbazole-9-carboxamide]: the IC25 in assay [1] (setting [3]) was greater than 5 µM. Moreover, in assay [2] (Table D), the affinity, expressed as Ki, was 107 µM.

With `Cc1c2ccncc2cc2c3cc(OCC4=NCCN4C)ccc3n(C)c12` [Example 41, 5,6-dimethyl-9-((1-methyl-4,5-dihydro-1H-imidazol-2-yl)methoxy)-6H-pyrido[4,3-b]carbazole], the IC25 in assay [1] (setting [3]) came to 0.67 µM. Further, in assay [2] (Table D), the Ki stood at 0.6 µM.

As for `Cc1c2ccncc2cc2c1[nH]c1ccc(OCCN3CCOCC3)cc12` [Compound 250, 4-(2-((5-methyl-6H-pyrido[4,3-b]carbazol-9-yl)oxy)ethyl)morpholine], the IC25 in assay [1] (setting [4]) is greater than 5 µM. In addition, the affinity in assay [2] (Table F), expressed as Ki, was 11 µM.

For `Cc1c2ccncc2cc2c3cc(C(=O)N4CCN(C)CC4)ccc3n(C)c12` [Example 76, (5,6-dimethyl-6H-pyrido[4,3-b]carbazol-9-yl)(4-methylpiperazin-1-yl)methanone], the IC25 in assay [1] (setting [3]) stood at 2.2 µM. This molecule also displayed a Ki in assay [2] (Table D) of 4.2 µM.

Consider `Cc1c2ccncc2cc2c3ccc(OCCN(C)C)cc3n(C)c12` [Example 51, 2-((5,6-dimethyl-6H-pyrido[4,3-b]carbazol-8-yl)oxy)-N,N-dimethylethanamine], for which, in assay [1] (setting [3]), the IC25 was greater than 5 µM. Moreover, the Ki in assay [2] (Table D) was found to be 6 µM.

On to `Cc1c2ccncc2cc2c3cc(OC[C@H]4CCCN4C)ccc3n(C)c12` [Example 36, (R)-5,6-dimethyl-9-((1-methylpyrrolidin-2-yl)methoxy)-6H-pyrido[4,3-b]carbazole], for which the IC25 in assay [1] (setting [3]) was greater than 5 µM. This molecule also gave a Ki in assay [2] (Table D) of 3.9 µM.

Regarding `Cc1c2ccncc2cc2c3cc(C(=O)NCCN4CCCCC4)ccc3n(C)c12` [Compound 213, 5,6-dimethyl-N-(2-(piperidin-1-yl)ethyl)-6H-pyrido[4,3-b]carbazole-9-carboxamide], the IC25 in assay [1] (setting [4]) came to 1.7 µM. Besides, the Ki in assay [2] (Table F) stood at 1.2 µM.

Regarding `CCn1c2ccc(OCC3=NCCN3)cc2c2cc3cnccc3c(C)c21` [Example 63, 9-((4,5-dihydro-1H-imidazol-2-yl)methoxy)-6-ethyl-5-methyl-6H-pyrido[4,3-b]carbazole], the IC25 in assay [1] (setting [3]) was found to be 4.8 µM. In assay [2] (Table D), the Ki was determined as 1.8 µM.

With `CNC(=O)COc1ccc2c(c1)c1cc3cnccc3c(C)c1n2C` [Example 34, 2-((5,6-dimethyl-6H-pyrido[4,3-b]carbazol-9-yl)oxy)-N-methylacetamide], the IC25 in assay [1] (setting [3]) is 1.2 µM. Also, the affinity in assay [2] (Table D), expressed as Ki, was 6.1 µM.

For the molecule `CN(C)CCOc1ccc2c(c1)c1cc3cnccc3cc1n2C` [Compound 237, N,N-dimethyl-2-((6-methyl-6H-pyrido[4,3-b]carbazol-9-yl)oxy)ethanamine], the IC25 in assay [1] came out at 2 µM. Besides, affinity in assay [2] (Table F) was put at a Ki of 3.6 µM.

In the case of `COc1ccc2c3cc4c(C(=O)N[C@H](C)CN(C)C)nccc4c(C)c3n(C)c2c1` [Example 82, (R)—N-(1-(dimethylamino)propan-2-yl)-8-methoxy-5,6-dimethyl-6H-pyrido[4,3-b]carbazole-1-carboxamide], in assay [1] (setting [3]), the 25% effect concentration (IC25) is greater than 5 µM. Also, the affinity in assay [2] (Table D) corresponds to a Ki of 20 µM.
